Columns and labels:
IDH1 R132H = IDH1 R132H (Homo sapiens, UniProt O75874, R132H); assay: Assay for IDH1 R132H inhibitors (NADPH/aKG, resazurin detection); format: biochemical; settings: enzyme assay of Example 12; read-out: IDH1R132H IC50
Procedure, shortened: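 Compound added to substrate mix (8 uM NADPH, 2 mM aKG), then enzyme mix (0.2 μg/ml IDH1 R132H); 50 min RT in 20 mM Tris pH 7.5, 150 mM NaCl, 10 mM MgCl2, 0.03% BSA. Resazurin detection mix (30 μM) 5 min RT; resorufin fluorescence Ex544/Em590.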

HT1080 cells = assay: Cellular assay for IDH1m inhibitors: inhibition of 2-HG production (LC-MS, 48 hours) in HT1080 cells; format: cell-based; settings: Homo sapiens, HT-1080; inhibition of 2-HG production, HT1080 cells; read-out: HT1080 IC50
Procedure, shortened: (§1)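 HT1080 or U87MG cells were seeded at 5000/well in DMEM with 10% FBS, incubated overnight, then treated with compounds (0.2% DMSO final) for 48 h. Medium 2-HG was quantified by LC-MS, and IC50 was taken as the concentration reducing 2-HG by 50% versus DMSO control.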

U87MG cells = assay: Cellular assay for IDH1m inhibitors: inhibition of 2-HG production (LC-MS, 48 hours) in U87MG cells; format: cell-based; settings: Homo sapiens, U-87 MG, inhibition of 2-HG production, U87R132H cells; read-out: U87R132H IC50
Procedure, shortened: as §1

Chain of IDH1 R132H (O75874 whole entry R132H): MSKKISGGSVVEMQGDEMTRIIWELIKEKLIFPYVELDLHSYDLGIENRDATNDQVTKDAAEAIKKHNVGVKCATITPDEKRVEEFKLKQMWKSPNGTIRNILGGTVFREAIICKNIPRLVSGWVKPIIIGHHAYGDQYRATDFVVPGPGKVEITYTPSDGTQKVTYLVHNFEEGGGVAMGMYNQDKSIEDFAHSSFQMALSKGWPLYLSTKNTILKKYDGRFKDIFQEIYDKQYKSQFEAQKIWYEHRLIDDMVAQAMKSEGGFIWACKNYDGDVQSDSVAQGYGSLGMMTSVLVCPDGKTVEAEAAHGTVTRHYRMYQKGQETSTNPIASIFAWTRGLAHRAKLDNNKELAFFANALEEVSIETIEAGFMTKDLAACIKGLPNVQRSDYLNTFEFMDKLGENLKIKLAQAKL

| IC50 (IDH1 R132H) | IC50 (HT1080 cells) | IC50 (U87MG cells) | Compound |
| --- | --- | --- | --- |
| < 500 nM | < 500 nM | < 500 nM | C=Cc1cc(-c2c(C3CC3)nc(N3CCN(C(=O)CC4CCCC4)[C@H](C4CC4)C3)c(C#N)c2C)ccn1 [Compound 782, (R)-6-(4-(2-cyclopentylacetyl)-3-cyclopropylpiperazin-1-yl)-2-cyclopropyl-4-methyl-2′-vinyl-3,4′-bipyridine-5-carbonitrile] |
| < 500 nM | < 500 nM | < 500 nM | C=Cc1cnc2c(-c3cc(C#N)c(N4CCN(C(=O)CCO)[C@H](C5CC5)C4)nc3C3CC3)cccc2n1 [Compound 657, (R)-6-cyclopropyl-2-(3-cyclopropyl-4-(3-hydroxypropanoyl)piperazin-1-yl)-5-(2-vinylquinoxalin-5-yl)nicotinonitrile] |
| < 500 nM | 1000 to 10000 nM | 500 to 1000 nM | N#Cc1cc(-c2ccc3ncoc3c2)c(C2CC2)nc1N1CCN(C(=O)C2CC2)[C@H](C2CC2)C1 [Compound 466, (R)-5-(benzo[d]oxazol-6-yl)-2-(4-(cyclopropanecarbonyl)-3-cyclopropylpiperazin-1-yl)-6-cyclopropylnicotinonitrile] |
| < 500 nM | < 500 nM | < 500 nM | C=Cc1cc(-c2cc(C#N)c(N3CCN(C(=O)C4CC4)[C@H](C4CC4)C3)nc2C2CC2)c2ccccc2n1 [Compound 542, (R)-2-(4-(cyclopropanecarbonyl)-3-cyclopropylpiperazin-1-yl)-6-cyclopropyl-5-(2-vinylquinolin-4-yl)nicotinonitrile] |
| < 500 nM | < 500 nM | 1000 to 10000 nM | C=CS(=O)(=O)N(C)c1cccc(-c2cc(C#N)c(N3CCN(C(=O)CCOC)[C@H](C)C3)nc2C2CC2)c1 [Compound 446] |
| < 500 nM | < 500 nM | < 500 nM | C=CC(=O)Nc1cccc(C(C)Oc2cc(C#N)c(N3CCN(C(=O)CCOC)[C@H](C)C3)nc2C2CC2)c1 (stereo partly drawn) [Compound 407, N-(3-(1-(5-cyano-2-cyclopropyl-6-((R)-4-(3-methoxypropanoyl)-3-methylpiperazin-1-yl)pyridin-3-yloxy)ethyl)phenyl)acrylamide] |
| < 500 nM | < 500 nM | < 500 nM | C=Cc1cc(-c2cc(C#N)c(N3CCN(C(=O)CC[C@@H]4CCO4)[C@H](C4CC4)C3)nc2C2CC2)ccn1 [Compound 794, 2-cyclopropyl-6-((R)-3-cyclopropyl-4-(3-((R)-oxetan-2-yl)propanoyl)piperazin-1-yl)-2′-vinyl-[3,4′-bipyridine]-5-carbonitrile] |
| < 500 nM | < 500 nM | < 500 nM | C=Cc1cc(-c2cc(C#N)c(N3CCN(C(=O)COC)[C@H](C(C)C)C3)nc2C2CC2)c2ccncc2n1 [Compound 741, (R)-6-cyclopropyl-2-(3-isopropyl-4-(2-methoxyacetyl)piperazin-1-yl)-5-(2-vinyl-1,7-naphthyridin-4-yl)nicotinonitrile] |
| < 500 nM | < 500 nM | < 500 nM | C=Cc1cc(-c2c(C3CC3)nc(N3CCN(C(=O)C[C@H]4CCO4)[C@H](C4CC4)C3)c(C#N)c2C)ccn1 [Compound 760, 2-cyclopropyl-6-((R)-3-cyclopropyl-4-(2-((R)-oxetan-2-yl)acetyl)piperazin-1-yl)-4-methyl-2′-vinyl-3,4′-bipyridine-5-carbonitrile] |
| < 500 nM | < 500 nM | 500 to 1000 nM | C=Cc1cc(-c2cc(C#N)c(N3CCN(C(=O)CCCOP(=O)(OC(C)(C)C)OC(C)(C)C)[C@H](C4CC4)C3)nc2C2CC2)ccn1 [Compound 804, (R)-di-tert-butyl 4-(4-(5-cyano-2-cyclopropyl-2′-vinyl-3,4′-bipyridin-6-yl)-2-cyclopropylpiperazin-1-yl)-4-oxobutyl phosphate] |
| < 500 nM | < 500 nM | < 500 nM | C#Cc1ccnc(Nc2cc(C#N)c(N3CCN(C(=O)COC)[C@H](C4CC4)C3)nc2C2CC2)c1 [Compound 750, (R)-6-cyclopropyl-2-(3-cyclopropyl-4-(2-methoxyacetyl)piperazin-1-yl)-5-(4-ethynylpyridin-2-ylamino)nicotinonitrile] |
| < 500 nM | 500 to 1000 nM | 1000 to 10000 nM | COCCC(=O)N1CCN(c2nc(C3CC3)c(-c3cccc(CCO)c3)cc2C#N)C[C@H]1C [Compound 297, (R)-6-cyclopropyl-5-(3-(2-hydroxyethyl)phenyl)-2-(4-(3-methoxypropanoyl)-3-methylpiperazin-1-yl)nicotinonitrile] |
| < 500 nM | < 500 nM | < 500 nM | C=CC(=O)N1CCC=C(c2c(C3CC3)nc(N3CCN(C(=O)CCO)[C@H](C(C)C)C3)c(C#N)c2C)C1 [Compound 762, (R)-1′-acryloyl-2-cyclopropyl-6-(4-(3-hydroxypropanoyl)-3-isopropylpiperazin-1-yl)-4-methyl-1′,2′,5′,6′-tetrahydro-[3,3′-bipyridine]-5-carbonitrile] |
| 500 to 1000 nM | 1000 to 10000 nM | 1000 to 10000 nM | COCCC(=O)N1CCN(c2nc(C3CC3)c(-c3ccncc3)c(C)c2C#N)C[C@H]1C [Compound 268, (R)-2-cyclopropyl-6-(4-(3-methoxypropanoyl)-3-methylpiperazin-1-yl)-4-methyl-3,4′-bipyridine-5-carbonitrile] |
| < 500 nM | 500 to 1000 nM | 1000 to 10000 nM | COCCC(=O)N1CCN(c2nc(C3CC3)c(-c3ccc(OC(F)(F)F)cc3)c(C)c2C#N)C[C@H]1C [Compound 263, (R)-6-cyclopropyl-2-(4-(3-methoxypropanoyl)-3-methylpiperazin-1-yl)-4-methyl-5-(4-(trifluoromethoxy)phenyl)nicotinonitrile] |
| < 500 nM | < 500 nM | < 500 nM | C=Cc1cc(-c2cc(C#N)c(N3CCN(C(=O)CCO)[C@H](C4CC4)C3)nc2C2CC2)c2cc[nH]c2n1 [Compound 740, (R)-6-cyclopropyl-2-(3-cyclopropyl-4-(3-hydroxypropanoyl)piperazin-1-yl)-5-(6-vinyl-1H-pyrrolo[2,3-b]pyridin-4-yl)nicotinonitrile] |
| < 500 nM | < 500 nM | < 500 nM | C=Cc1cc(-c2c(C3CC3)nc(N3CCN(C(=O)CC4CC4)[C@H](C4CC4)C3)c(C#N)c2C)ccn1 [Compound 787, (R)-2-cyclopropyl-6-(3-cyclopropyl-4-(2-cyclopropylacetyl)piperazin-1-yl)-4-methyl-2′-vinyl-3,4′-bipyridine-5-carbonitrile] |
| < 500 nM | < 500 nM | < 500 nM | C=Cc1cc(Nc2cc(C#N)c(N3CCN(C(=O)CCO)[C@H](C4CC4)C3)nc2C2CC2)ccn1 [Compound 676, (R)-6-cyclopropyl-2-(3-cyclopropyl-4-(3-hydroxypropanoyl)piperazin-1-yl)-5-((2-vinylpyridin-4-yl)amino)nicotinonitrile] |
| < 500 nM | 1000 to 10000 nM | 1000 to 10000 nM | COCCC(=O)N1CCN(c2nc(C3CC3)c(-c3ccc(F)c(Cl)c3)c(C)c2C#N)C[C@H]1C [Compound 271, (R)-5-(3-chloro-4-fluorophenyl)-6-cyclopropyl-2-(4-(3-methoxypropanoyl)-3-methylpiperazin-1-yl)-4-methylnicotinonitrile] |
| < 500 nM | < 500 nM | < 500 nM | C=Cc1cc(-c2cc(C#N)c(N3CCN(C(=O)CCOC)[C@H](C(C)C)C3)nc2C2CC2)c2ccncc2n1 [Compound 611, (R)-6-cyclopropyl-2-(3-isopropyl-4-(3-methoxypropanoyl)piperazin-1-yl)-5-(2-vinyl-1,7-naphthyridin-4-yl)nicotinonitrile] |
| < 500 nM | < 500 nM | < 500 nM | C=Cc1cc(-c2c(C3CC3)nc(N3CCN(C(=O)CCOC)[C@H](C4CC4)C3)c(C#N)c2C)ccn1 [Compound 558, (R)-2-cyclopropyl-6-(3-cyclopropyl-4-(3-methoxypropanoyl)piperazin-1-yl)-4-methyl-2′-vinyl-3,4′-bipyridine-5-carbonitrile] |
| < 500 nM | 500 to 1000 nM | < 500 nM | N#Cc1cc(Nc2ccnc3ccccc23)c(C2CC2)nc1N1CCN(C(=O)C2CC2)[C@H](C2CC2)C1 [Compound 528, (R)-2-(4-(cyclopropanecarbonyl)-3-cyclopropylpiperazin-1-yl)-6-cyclopropyl-5-(quinolin-4-ylamino)nicotinonitrile] |
| < 500 nM | < 500 nM | < 500 nM | C=Cc1cc(-c2cc(C#N)c(N3CCN(C(=O)C[C@H]4CCO4)[C@H](C4CC4)C3)nc2C2CC2)ccn1 [Compound 752, 2-cyclopropyl-6-((R)-3-cyclopropyl-4-(2-((R)-oxetan-2-yl)acetyl)piperazin-1-yl)-2′-vinyl-3,4′-bipyridine-5-carbonitrile] |
| < 500 nM | < 500 nM | < 500 nM | C=Cc1cc(-c2c(C3CC3)nc(N3CCN(C(=O)CCCO)[C@H](C4CC4)C3)c(C#N)c2C)ccn1 [Compound 770, (R)-2-cyclopropyl-6-(3-cyclopropyl-4-(4-hydroxybutanoyl)piperazin-1-yl)-4-methyl-2′-vinyl-3,4′-bipyridine-5-carbonitrile] |
| < 500 nM | < 500 nM | < 500 nM | C=Cc1cc(-c2c(C3CC3)nc(N3CCN(C(=O)C[C@H]4CCO4)[C@H](C4CC4)C3)c(C#N)c2C)cnn1 [Compound 785, 6-cyclopropyl-2-((R)-3-cyclopropyl-4-(2-((R)-oxetan-2-yl)acetyl)piperazin-1-yl)-4-methyl-5-(6-vinylpyridazin-4-yl)nicotinonitrile] |

From patent US9856279B2 (AGIOS PHARMACEUTICALS, INC, priority 2011, dated 2018)
